The NIST ThermoML archive (doi:10.1016/j.jct.2015.01.004)
Several values for one entry are separate records, joined by “and”; a condition that tells them apart may be missing. Identical values can stand only once.

Experiment: molar heat capacity at constant pressure; xn = mol fraction of the nth substance listed
Settings: 100 kPa

[Si] [silicon] + [Li]
Settings | molar heat capacity at constant pressure
127.62 K, Crystal of intercomponent compound 2, relaxation calorimeter, x2 = 0.804 | 12.78 J/K/mol
127.64 K, Crystal of intercomponent compound 2, relaxation calorimeter, x2 = 0.804 | 12.84 J/K/mol
130 K, Crystal of intercomponent compound 1, relaxation calorimetry + DSC, x2 = 0.81 | 12.64 J/K/mol
130 K, Crystal of intercomponent compound 2, relaxation calorimetry + DSC, x2 = 0.804 | 13.04 J/K/mol
131.69 K, Crystal of intercomponent compound 1, relaxation calorimetry, x2 = 0.81 | 12.88 J/K/mol
131.69 K, Crystal of intercomponent compound 2, relaxation calorimeter, x2 = 0.804 | 13.22 J/K/mol
131.71 K, Crystal of intercomponent compound 2, relaxation calorimeter, x2 = 0.804 | 13.3 J/K/mol
135.76 K, Crystal of intercomponent compound 1, relaxation calorimetry, x2 = 0.81 | 13.31 J/K/mol
135.76 K, Crystal of intercomponent compound 2, relaxation calorimeter, x2 = 0.804 | 13.64 J/K/mol
135.78 K, Crystal of intercomponent compound 2, relaxation calorimeter, x2 = 0.804 | 13.71 J/K/mol
139.83 K, Crystal of intercomponent compound 1, relaxation calorimetry, x2 = 0.81 | 13.71 J/K/mol
139.83 K, Crystal of intercomponent compound 2, relaxation calorimeter, x2 = 0.804 | 14.04 J/K/mol
139.85 K, Crystal of intercomponent compound 2, relaxation calorimeter, x2 = 0.804 | 14.09 J/K/mol
140 K, Crystal of intercomponent compound 1, relaxation calorimetry + DSC, x2 = 0.81 | 13.65 J/K/mol
140 K, Crystal of intercomponent compound 2, relaxation calorimetry + DSC, x2 = 0.804 | 14.07 J/K/mol
143.86 K, Crystal of intercomponent compound 1, relaxation calorimetry, x2 = 0.81 | 14.08 J/K/mol
143.87 K, Crystal of intercomponent compound 2, relaxation calorimeter, x2 = 0.804 | 14.45 J/K/mol
143.88 K, Crystal of intercomponent compound 2, relaxation calorimeter, x2 = 0.804 | 14.5 J/K/mol
147.97 K, Crystal of intercomponent compound 1, relaxation calorimetry, x2 = 0.81 | 14.51 J/K/mol
147.98 K, Crystal of intercomponent compound 2, relaxation calorimeter, x2 = 0.804 | 14.83 J/K/mol
147.99 K, Crystal of intercomponent compound 2, relaxation calorimeter, x2 = 0.804 | 14.94 J/K/mol
150 K, Crystal of intercomponent compound 1, relaxation calorimetry + DSC, x2 = 0.81 | 14.58 J/K/mol
150 K, Crystal of intercomponent compound 2, relaxation calorimetry + DSC, x2 = 0.804 | 15.01 J/K/mol
152 K, Crystal of intercomponent compound 1, relaxation calorimetry, x2 = 0.81 | 14.84 J/K/mol
152 K, Crystal of intercomponent compound 2, relaxation calorimeter, x2 = 0.804 | 15.17 J/K/mol
152.02 K, Crystal of intercomponent compound 2, relaxation calorimeter, x2 = 0.804 | 15.29 J/K/mol
156.1 K, Crystal of intercomponent compound 1, relaxation calorimetry, x2 = 0.81 | 15.17 J/K/mol
156.1 K, Crystal of intercomponent compound 2, relaxation calorimeter, x2 = 0.804 | 15.54 J/K/mol
156.12 K, Crystal of intercomponent compound 2, relaxation calorimeter, x2 = 0.804 | 15.62 J/K/mol
160 K, Crystal of intercomponent compound 1, relaxation calorimetry + DSC, x2 = 0.81 | 15.43 J/K/mol
160 K, Crystal of intercomponent compound 2, relaxation calorimetry + DSC, x2 = 0.804 | 15.88 J/K/mol
160.12 K, Crystal of intercomponent compound 1, relaxation calorimetry, x2 = 0.81 | 15.52 J/K/mol
160.13 K, Crystal of intercomponent compound 2, relaxation calorimeter, x2 = 0.804 | 15.86 J/K/mol
160.14 K, Crystal of intercomponent compound 2, relaxation calorimeter, x2 = 0.804 | 15.96 J/K/mol
164.23 K, Crystal of intercomponent compound 1, relaxation calorimetry, x2 = 0.81 | 15.85 J/K/mol
164.23 K, Crystal of intercomponent compound 2, relaxation calorimeter, x2 = 0.804 | 16.22 J/K/mol
164.24 K, Crystal of intercomponent compound 2, relaxation calorimeter, x2 = 0.804 | 16.27 J/K/mol
168.29 K, Crystal of intercomponent compound 1, relaxation calorimetry, x2 = 0.81 | 16.17 J/K/mol
168.29 K, Crystal of intercomponent compound 2, relaxation calorimeter, x2 = 0.804 | 16.53 J/K/mol
168.31 K, Crystal of intercomponent compound 2, relaxation calorimeter, x2 = 0.804 | 16.6 J/K/mol
170 K, Crystal of intercomponent compound 1, relaxation calorimetry + DSC, x2 = 0.81 | 16.22 J/K/mol
170 K, Crystal of intercomponent compound 2, relaxation calorimetry + DSC, x2 = 0.804 | 16.67 J/K/mol
172.36 K, Crystal of intercomponent compound 1, relaxation calorimetry, x2 = 0.81 | 16.41 J/K/mol
172.36 K, Crystal of intercomponent compound 2, relaxation calorimeter, x2 = 0.804 | 16.79 J/K/mol
172.38 K, Crystal of intercomponent compound 2, relaxation calorimeter, x2 = 0.804 | 16.9 J/K/mol
176.43 K, Crystal of intercomponent compound 1, relaxation calorimetry, x2 = 0.81 | 16.71 J/K/mol
176.43 K, Crystal of intercomponent compound 2, relaxation calorimeter, x2 = 0.804 | 17.06 J/K/mol and 17.19 J/K/mol
180 K, Crystal of intercomponent compound 1, relaxation calorimetry + DSC, x2 = 0.81 | 16.94 J/K/mol
180 K, Crystal of intercomponent compound 2, relaxation calorimetry + DSC, x2 = 0.804 | 17.39 J/K/mol
180.45 K, Crystal of intercomponent compound 1, relaxation calorimetry, x2 = 0.81 | 16.95 J/K/mol
180.45 K, Crystal of intercomponent compound 2, relaxation calorimeter, x2 = 0.804 | 17.33 J/K/mol
180.46 K, Crystal of intercomponent compound 2, relaxation calorimeter, x2 = 0.804 | 17.44 J/K/mol
184.56 K, Crystal of intercomponent compound 2, relaxation calorimeter, x2 = 0.804 | 17.58 J/K/mol
184.57 K, Crystal of intercomponent compound 1, relaxation calorimetry, x2 = 0.81 | 17.2 J/K/mol
184.57 K, Crystal of intercomponent compound 2, relaxation calorimeter, x2 = 0.804 | 17.69 J/K/mol
188.58 K, Crystal of intercomponent compound 2, relaxation calorimeter, x2 = 0.804 | 17.84 J/K/mol
188.59 K, Crystal of intercomponent compound 1, relaxation calorimetry, x2 = 0.81 | 17.45 J/K/mol
188.59 K, Crystal of intercomponent compound 2, relaxation calorimeter, x2 = 0.804 | 17.97 J/K/mol
190 K, Crystal of intercomponent compound 1, relaxation calorimetry + DSC, x2 = 0.81 | 17.6 J/K/mol
190 K, Crystal of intercomponent compound 2, relaxation calorimetry + DSC, x2 = 0.804 | 18.05 J/K/mol
192.69 K, Crystal of intercomponent compound 1, relaxation calorimetry, x2 = 0.81 | 17.73 J/K/mol
192.69 K, Crystal of intercomponent compound 2, relaxation calorimeter, x2 = 0.804 | 18.09 J/K/mol
192.71 K, Crystal of intercomponent compound 2, relaxation calorimeter, x2 = 0.804 | 18.27 J/K/mol
196.74 K, Crystal of intercomponent compound 2, relaxation calorimeter, x2 = 0.804 | 18.32 J/K/mol
196.78 K, Crystal of intercomponent compound 1, relaxation calorimetry, x2 = 0.81 | 17.96 J/K/mol
196.78 K, Crystal of intercomponent compound 2, relaxation calorimeter, x2 = 0.804 | 18.47 J/K/mol
200 K, Crystal of intercomponent compound 1, relaxation calorimetry + DSC, x2 = 0.81 | 18.2 J/K/mol
200 K, Crystal of intercomponent compound 2, relaxation calorimetry + DSC, x2 = 0.804 | 18.65 J/K/mol
200.77 K, Crystal of intercomponent compound 2, relaxation calorimeter, x2 = 0.804 | 18.54 J/K/mol
200.8 K, Crystal of intercomponent compound 1, relaxation calorimetry, x2 = 0.81 | 18.22 J/K/mol
200.8 K, Crystal of intercomponent compound 2, relaxation calorimeter, x2 = 0.804 | 18.74 J/K/mol
204.91 K, Crystal of intercomponent compound 2, relaxation calorimeter, x2 = 0.804 | 18.8 J/K/mol
204.92 K, Crystal of intercomponent compound 1, relaxation calorimetry, x2 = 0.81 | 18.43 J/K/mol
204.93 K, Crystal of intercomponent compound 2, relaxation calorimeter, x2 = 0.804 | 18.97 J/K/mol
208.92 K, Crystal of intercomponent compound 2, relaxation calorimeter, x2 = 0.804 | 19.05 J/K/mol
208.93 K, Crystal of intercomponent compound 1, relaxation calorimetry, x2 = 0.81 | 18.63 J/K/mol
208.94 K, Crystal of intercomponent compound 2, relaxation calorimeter, x2 = 0.804 | 19.19 J/K/mol
210 K, Crystal of intercomponent compound 1, relaxation calorimetry + DSC, x2 = 0.81 | 18.76 J/K/mol
210 K, Crystal of intercomponent compound 2, relaxation calorimetry + DSC, x2 = 0.804 | 19.19 J/K/mol
213.04 K, Crystal of intercomponent compound 2, relaxation calorimeter, x2 = 0.804 | 19.24 J/K/mol
213.05 K, Crystal of intercomponent compound 1, relaxation calorimetry, x2 = 0.81 | 18.87 J/K/mol
